Data published in US11028090B2 (Dong Wha Pharm. Co., Ltd., priority 2017, dated 2021).
Like-named read-outs stand apart in the source and are kept apart here.

Key:
[1] = molecular target: BRD4 (BD1+BD2) bromodomain (Homo sapiens (Human), UniProt O60885); test: BRD4 binding inhibition (AlphaScreen, GST-BRD4 vs tetraacetylated histone H4 peptide)
Summary of the method: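 GST-BRD4 (BD1+BD2) and biotinylated tetraacetyl-histone H4 peptide, each at 100 nM in HEPES pH 7.4 buffer with BSA and DTT, were combined with compound. Glutathione acceptor and streptavidin donor beads were added, then incubated 30 min at room temperature in the dark. Read-out was AlphaScreen signal.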

[2] = system: acute myelogenous leukemia cells (MV-4-11 cells); test: Cytotoxicity to acute myelogenous leukemia cells (MV-4-11 cells), CCK-8; settings: Homo sapiens, MV4-11, 72 h
Protocol: The following experiment was performed to evaluate the cytotoxicity of [1,2,4]triazolo[4,3-a]quinoxaline derivative according to the present invention to acute myelogenous leukemia cells (MV-4-11 cells).
Acute myelogenous leukemia cells (MV-4-11 cells) were distributed in a 96 well plate at the density of 5×10^3 cells/well. The plated cells were treated with the compounds of the present invention dissolved in DMSO at the different concentrations ranging from 0.01 μM to 10 μM. 72 hours later, the activities of the compounds were determined using CCK-8 reagent.

[3] = GST-BRD4 (BD1+BD2) vs biotinylated acetyl-histone H4 peptide, AlphaScreen, read-out: BRD4 IC50
[4] = read-out: IC50, cytotoxicity against acute myelogenous leukemia cells
[5] = read-out: MV-4-11 Cytotoxicity IC50
[6] = GST-BRD4 (BD1+BD2) / biotinylated acetyl-histone H4 (Lys5,8,12,16) peptide, read-out: IC50, BRD4 binding inhibition

Compound | IC50 [1, 3] [nM] | IC50 [1, 6] [nM] | IC50 [2, 4] [nM] | IC50 [2, 5] [nM] | IC50 ([1]; IC50, BRD4 binding inhibition, GST-BRD4 (BD1+BD2) / biotinylated acetyl-histone H4 (Lys5,8,12,16) peptide) [nM]
Cc1nnc2c(NCCCCNC(=O)CC(C)C)nc3cc(OCC4CCCCO4)ccc3n12 (stereo not drawn) [Example 343, 3-methyl-N-{4-[1-methyl-7-(tetrahydro-pyran-2-yl-methoxy)-[1,2,4]triazolo[4,3-a]quinoxaline-4-ylamino]-butyl}-butyramide] | 36 | ≤ 50 | ≤ 200 | 120 | –
Cc1nnc2c(NCCCCNC(=O)CC(C)C)nc3cc(OC4CCOCC4)ccc3n12 [Example 344, 3-methyl-N-{4-[1-methyl-7-(tetrahydro-pyran-4-yloxy)-[1,2,4]triazolo[4,3-a]quinoxaline-4-ylamino]-butyl}-butyramide] | 10 | ≤ 10 | ≤ 200 | 121 | –
Cc1nnc2c(NCCCCNC(=O)CC(C)C)nc3cc(OCc4ccc(-c5nnn(C)n5)cc4)ccc3n12 [Example 349, 3-methyl-N-(4-{1-methyl-7-[4-(2-methyl-2H-tetrazolo-5-yl)-benzyloxy]-[1,2,4]triazolo[4,3-a]quinoxaline-4-ylamino}-butyl)-butyramide] | 55 | – | ≤ 200 | 160 | –
CSc1ccc2c(c1)nc(NCCCCNC(=O)[C@@H](F)C(C)C)c1nnc(C)n12 [Example 357, 2-(S)-fluoro-3-methyl-N-[4-(1-methyl-7-methylsulfanyl-[1,2,4]triazolo[4,3-a]quinoxaline-4-ylamino)-butyl]-butyramide] | 62 | – | ≤ 200 | 44 | –
COCCOc1ccc2c(c1)nc(NCCCCNC(=O)CC(C)C)c1nnc(C)n12 [Example 365, N-{4-[7-(2-methoxy-ethoxy)-1-methyl-[1,2,4]triazolo[4,3-a]quinoxaline-4-ylamino]-butyl}-3-methyl-butyramide] | 13 | ≤ 50 | ≤ 200 | 60 | –
CCCOC(=O)NCCCCNc1nc2cc(OCCOC)ccc2n2c(C)nnc12 [Example 367, {4-[7-(2-methoxy-ethoxy)-1-methyl-[1,2,4]triazolo[4,3-a]quinoxaline-4-ylamino]-butyl}-carbamic acid propylester] | 5 | ≤ 10 | – | 350 | –
CCC(C)OC(=O)NCCCCNc1nc2cc(OCCOC)ccc2n2c(C)nnc12 (stereo not drawn) [Example 368, {4-[7-(2-methoxy-ethoxy)-1-methyl-[1,2,4]triazolo[4,3-a]quinoxaline-4-ylamino]-butyl}-carbamic acid-sec-butylester] | 10 | ≤ 10 | ≤ 200 | 140 | –
C=CCOC(=O)NCCCCNc1nc2cc(OCCOC)ccc2n2c(C)nnc12 [Example 370, {4-[7-(2-methoxy-ethoxy)-1-methyl-[1,2,4]triazolo[4,3-a]quinoxaline-4-ylamino]-butyl}-carbamic acid allylester] | 14 | ≤ 50 | – | 240 | –
COCCOc1ccc2c(c1)nc(NCCCCNC(=O)Oc1ccccc1)c1nnc(C)n12 [Example 372, {4-[7-(2-methoxy-ethoxy)-1-methyl-[1,2,4]triazolo[4,3-a]quinoxaline-4-ylamino]-butyl}-carbamic acid phenylester] | – | – | ≤ 200 | 180 | ≤ 10
COCCOc1ccc2c(c1)nc(NCCCCNC(=O)OCc1ccccc1)c1nnc(C)n12 [Example 373, {4-[7-(2-methoxy-ethoxy)-1-methyl-[1,2,4]triazolo[4,3-a]quinoxaline-4-ylamino]-butyl}-carbamic acid benzylester] | 20 | ≤ 50 | – | 420 | –
COCCOc1ccc2c(c1)nc(NCCCCNC(=O)C=C(C)C)c1nnc(C)n12 [Example 378, 3-methyl-butene-2-oic acid-{4-[7-(2-methoxy-ethoxy)-1-methyl-[1,2,4]triazolo[4,3-a]quinoxaline-4-ylamino]-butyl}-amide] | 14 | ≤ 50 | – | 290 | –

Now from value to compound, other results behind:

IC50 [1, 3] [nM] | IC50 [1, 6] [nM] | Compound | IC50 [2, 4] [nM] | IC50 [2, 5] [nM] | IC50 ([1]; IC50, BRD4 binding inhibition, GST-BRD4 (BD1+BD2) / biotinylated acetyl-histone H4 (Lys5,8,12,16) peptide) [nM]
56 | – | Cc1nnc2c(NCCCCNC(=O)CC(C)C)nc3cc(OCCCC#N)ccc3n12 [Example 342, N-{4-[7-(3-cyano-propoxy)-1-methyl-[1,2,4]triazolo[4,3-a]quinoxaline-4-ylamino]-butyl}-3-methyl-butyramide] | ≤ 200 | 28 | –
22 | ≤ 50 | Cc1nnc2c(NCCCCNC(=O)CC(C)C)nc3cc(OCc4ccccc4)ccc3n12 [Example 346, N-[4-(7-benzyloxy-1-methyl-[1,2,4]triazolo[4,3-a]quinoxaline-4-ylamino)-butyl]-3-methyl-butyramide] | ≤ 200 | 79 | –
56 | – | CSc1ccc2c(c1)nc(NCCCCNC(=O)OC(C)(C)C)c1nnc(C)n12 [Example 354, [4-(1-methyl-7-methylsulfanyl-[1,2,4]triazolo[4,3-a]quinoxaline-4-ylamino)-butyl]-carbamic acid-tert-butylester] | – | 472 | –
7 | ≤ 10 | CSc1ccc2c(c1)nc(NCCCCNC(=O)[C@@H](O)C(C)C)c1nnc(C)n12 [Example 358, 2-(S)-hydroxy-3-methyl-N-[4-(1-methyl-7-methylsulfanyl-[1,2,4]triazolo[4,3-a]quinoxaline-4-ylamino)-butyl]-butyramide] | – | 160 | –
16 | ≤ 50 | COCCOc1ccc2c(c1)nc(NCCCCNC(=O)OC(C)C)c1nnc(C)n12 [Example 366, {4-[7-(2-methoxy-ethoxy)-1-methyl-[1,2,4]triazolo[4,3-a]quinoxaline-4-ylamino]-butyl}-carbamic acid isopropylester] | ≤ 200 | 110 | –
14 | ≤ 50 | COCCOc1ccc2c(c1)nc(NCCCCNC(=O)OCC(C)C)c1nnc(C)n12 [Example 369, {4-[7-(2-methoxy-ethoxy)-1-methyl-[1,2,4]triazolo[4,3-a]quinoxaline-4-ylamino]-butyl}-carbamic acid isobutylester] | ≤ 200 | 130 | –
7 | ≤ 10 | COCCOc1ccc2c(c1)nc(NCCCCNC(=O)OC1CCCC1)c1nnc(C)n12 [Example 371, {4-[7-(2-methoxy-ethoxy)-1-methyl-[1,2,4]triazolo[4,3-a]quinoxaline-4-ylamino]-butyl}-carbamic acid cyclopentylester] | ≤ 200 | 119 | –
– | ≤ 50 | COCCOc1ccc2c(c1)nc(NCCCCNC(=O)C(C)(C)C)c1nnc(C)n12 [Example 375, {4-[7-(2-methoxy-ethoxy)-1-methyl-[1,2,4]triazolo[4,3-a]quinoxaline-4-ylamino]-butyl}-2,2-dimethyl-propionamide] | – | 400 | –
17 | ≤ 50 | C/C=C/C(=O)NCCCCNc1nc2cc(OCCOC)ccc2n2c(C)nnc12 [Example 379, butene-2-oic acid{4-[7-(2-methoxy-ethoxy)-1-methyl-[1,2,4]triazolo[4,3-a]quinoxaline-4-ylamino]-butyl}-amide] | – | 420 | –
13 | ≤ 50 | CCC(C)C(=O)NCCCCNc1nc2cc(OCCOC)ccc2n2c(C)nnc12 (stereo not drawn) [Example 380, N-{4-[7-(2-methoxy-ethoxy)-1-methyl-[1,2,4]triazolo[4,3-a]quinoxaline-4-ylamino]-butyl}-2-methyl-butyramide] | – | 610 | –
